Data published in article PMC8400955 (Pharmaceuticals, 2021).
Entries after “also recorded” stand apart in the source; their conditions may differ. Where two headings read alike, the source gives them in different places.

Assays:
[1] = Plasma protein binding by equilibrium dialysis, rat; assay type: in vitro ADME; conditions: plasma (EDTA-K2 as anticoagulant)
Experimental: (§1) The in vitro binding of ZB716 to plasma proteins was determined by equilibrium dialysis technique in mouse, rat, dog, monkey, and human plasma (EDTA-K2 as anticoagulant), over the concentration range of 0.1–10 μM. The free concentration of ZB716 was below the lower limit of quantitation at 0.1, 1, and 10 μM in human, monkey, dog, rat, and mouse plasma.
(§2) The equilibrium dialysis method was used to investigate the in vitro binding of ZB716 to human, monkey, dog, rat, and mouse plasma proteins. The dialysis phosphate buffer solution (100 mM, pH 7.4) and plasma samples containing 0.1, 1, and 10 μM of ZB716 were added to separate chambers of dialysis wells of the HTDialysis device. The dialysis plate was placed in an incubator at 37 °C with 5% CO2 at approximately 100 rpm for 6 h. After incubation, the seal was removed, and 50 μL each of post-dialysis samples was pipetted from both the buffer and plasma chambers into fresh 96-well plates. The samples were analyzed via UPLC–MS/MS. The bound fraction, unbound fraction, recovery (%), and remaining (%) were calculated by Equations (2)–(5):%Unbound = (Conc.buffer chamber/Conc.plasma chamber) × 100(2) %Bound = 100% − %Unbound (3) %Recovery = (Conc.buffer chamber + Conc.plasma chamber)/Conc.Total sample × 100 (4) %Remaining = Conc.6h/Conc.0h × 100 (5)

rat plasma proteins = assay: as above; assay type: in vitro ADME; conditions: for Remaining: 6 h
Experimental: as §1, §2

[2] = Plasma protein binding by equilibrium dialysis, mouse; assay type: in vitro ADME; conditions: plasma (EDTA-K2 as anticoagulant)
Experimental: as §1, §2

mouse plasma proteins = assay: as above; assay type: in vitro ADME; conditions: for Remaining: 6 h
Experimental: as §1, §2

CYP2D6 = CYP2D6 (Homo sapiens, UniProt P10635); assay: CYP inhibition in human liver microsomes, CYP2D6; assay type: in vitro ADME; conditions: HLM, marker substrate Dextromethorphan
Experimental: (§3) . The inhibition of CYP2B6 and 3A4 (when midazolam was used as the substrate) by ZB716 was not observed. The inhibitory potential of ZB716 on human CYP enzyme activities appears relatively low.
(§4) The final concentrations of ZB716 in the incubation system were 0, 0.05, 0.15, 0.5, 1.5, 5, and 15 µM (final organic solvent concentration ≤ 1%). […] . […] The concentrations of the isoform-specific metabolites derived from marker substrates were measured by UPLC–MS/MS. The IC50 values were calculated from the percentages of the rate of the metabolite formation relative to non-inhibited controls vs. the concentrations of ZB716 or positive control inhibitors. All incubations were performed in triplicate. The mean of the enzyme activity (% of non-inhibited control) for each concentration was plotted against the log inhibitor concentration, and fitted to an IC50 curve.

[3] = Metabolic stability in rat hepatocytes; assay type: in vitro ADME
Experimental: (§5) Hepatocytes of humans (#X008001), dogs (#M00205), rats (#M00005), and mice (#M005052) were purchased from BioIVT, NY, USA. Monkey hepatocytes were procured from RILD, Shanghai, China. The metabolic stability of ZB716 in human, monkey, dog, rat and mouse hepatocytes was investigated by incubating ZB716 with human, monkey, dog, rat, and mouse hepatocytes (0.5 × 10^6 cells/mL), or with incubation medium only.
(§6) parent disappearance vs. incubation time curve.
(§7) Scaled-up Clint = kV/N × Scaling Factor
(§8) metabolite formed during the reaction.

rat hepatocytes = assay: Metabolic stability in rat hepatocytes; assay type: in vitro ADME; conditions: 1 μM
Experimental: as §5, §6, §7, §8

CYP1A2 = target: T1, CYP1A2 (Homo sapiens, UniProt P05177); assay: CYP phenotyping, recombinant CYP1A2
T1 sequence (P05177 1-516): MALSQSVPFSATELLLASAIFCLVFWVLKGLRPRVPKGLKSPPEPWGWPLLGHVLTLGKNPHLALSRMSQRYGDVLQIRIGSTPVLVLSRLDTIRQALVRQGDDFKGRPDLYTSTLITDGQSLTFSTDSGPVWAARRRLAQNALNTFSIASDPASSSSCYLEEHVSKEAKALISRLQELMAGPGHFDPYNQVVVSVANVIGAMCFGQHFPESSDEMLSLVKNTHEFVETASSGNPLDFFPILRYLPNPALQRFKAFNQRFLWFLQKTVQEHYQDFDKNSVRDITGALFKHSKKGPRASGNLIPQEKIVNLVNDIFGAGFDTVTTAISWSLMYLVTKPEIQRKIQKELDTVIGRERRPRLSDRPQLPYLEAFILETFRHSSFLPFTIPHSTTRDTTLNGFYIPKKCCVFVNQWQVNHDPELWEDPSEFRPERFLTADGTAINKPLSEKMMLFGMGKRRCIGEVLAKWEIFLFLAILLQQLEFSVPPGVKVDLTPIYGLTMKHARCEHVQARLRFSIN

CYP3A4 = CYP3A4 (Homo sapiens, UniProt P08684); assay: CYP inhibition in human liver microsomes, CYP3A4; assay type: in vitro ADME; set-up: 2D6, and 3A4) in human liver microsomes (0.2 mg/mL) in the presence of NADPH; from tissue; host or cells: human liver microsomes; conditions: HLM
Experimental: as §3, §4

Sequence of CYP3A4 (P08684 whole entry): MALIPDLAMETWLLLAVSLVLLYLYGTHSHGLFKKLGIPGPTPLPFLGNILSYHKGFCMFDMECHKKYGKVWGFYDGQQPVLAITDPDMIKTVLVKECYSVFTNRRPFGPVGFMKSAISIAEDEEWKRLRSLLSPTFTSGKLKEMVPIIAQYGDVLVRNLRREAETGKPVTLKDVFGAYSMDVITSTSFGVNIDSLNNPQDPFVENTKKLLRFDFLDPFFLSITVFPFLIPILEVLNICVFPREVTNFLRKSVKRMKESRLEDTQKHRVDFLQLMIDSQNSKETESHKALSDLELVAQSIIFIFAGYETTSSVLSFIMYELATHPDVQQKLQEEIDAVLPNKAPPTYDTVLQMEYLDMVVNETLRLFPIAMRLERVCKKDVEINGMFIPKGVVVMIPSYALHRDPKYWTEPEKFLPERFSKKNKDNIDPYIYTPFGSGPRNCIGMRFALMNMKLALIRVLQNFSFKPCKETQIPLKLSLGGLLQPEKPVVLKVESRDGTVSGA
Sequence of CYP2D6 (P10635 whole entry): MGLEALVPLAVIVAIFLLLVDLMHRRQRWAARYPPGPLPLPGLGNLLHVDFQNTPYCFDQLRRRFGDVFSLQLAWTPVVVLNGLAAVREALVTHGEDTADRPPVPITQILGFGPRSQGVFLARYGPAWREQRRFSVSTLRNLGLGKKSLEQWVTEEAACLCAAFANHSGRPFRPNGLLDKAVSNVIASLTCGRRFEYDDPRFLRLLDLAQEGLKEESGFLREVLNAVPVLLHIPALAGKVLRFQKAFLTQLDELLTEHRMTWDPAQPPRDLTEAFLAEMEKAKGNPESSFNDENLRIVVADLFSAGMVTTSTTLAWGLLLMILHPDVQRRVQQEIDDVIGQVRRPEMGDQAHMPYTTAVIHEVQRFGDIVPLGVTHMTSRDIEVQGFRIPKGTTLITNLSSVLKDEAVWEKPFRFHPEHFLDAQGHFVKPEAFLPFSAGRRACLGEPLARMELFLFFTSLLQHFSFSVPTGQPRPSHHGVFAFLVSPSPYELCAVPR

Q: Which recovery at 6 h, 0.1 μM ([1]; pH 7.4, 0.1 μM) does the source give for `C[C@]12CC[C@@H]3c4ccc(B(O)O)cc4C[C@@H](CCCCCCCCC[S+]([O-])CCCC(F)(F)C(F)(F)F)[C@H]3[C@@H]1CC[C@@H]2O` (stereo partly drawn) [ZB716, fulvestrant-3-boronic acid] here?
A: The recovery at 6 h, 0.1 μM was less than 94.4%.

Q: What about the recovery at 6 h, 1 μM ([1]; pH 7.4, 1 μM) of the same compound?
A: Its recovery at 6 h, 1 μM is less than 94.9%.

Q: What about the recovery at 6 h, 10 μM ([1]; pH 7.4, 10 μM) of the same compound?
A: Its recovery at 6 h, 10 μM is less than 82.1%.

Q: What about the Bound (rat plasma proteins; 0.1 μM) of the same compound?
A: The Bound was greater than 97.7%.

Q: What about the Unbound (rat plasma proteins; 0.1 μM) of the same compound?
A: Its Unbound is less than 2.35%.

Q: And the Remaining (rat plasma proteins; 0.1 μM)?
A: The Remaining was 83.9 ± 8.2%.

Q: What about the Bound (rat plasma proteins; 1 μM) of the same compound?
A: Its Bound is greater than 99.8%.

Q: What about the Unbound (rat plasma proteins; 1 μM) of the same compound?
A: Its Unbound is less than 0.216%.

Q: What about the Remaining (rat plasma proteins; 1 μM) of the same compound?
A: Its Remaining is 91.1 ± 2.1%.

Q: What about the Bound (rat plasma proteins; 10 μM) of the same compound?
A: The Bound was greater than 99.97%.

Q: What about the Unbound (rat plasma proteins; 10 μM) of the same compound?
A: Its Unbound is less than 0.0281%.

Q: And the Remaining (rat plasma proteins; 10 μM)?
A: Its Remaining is 84.7 ± 2.0%.

Q: And the recovery at 6 h, 0.1 μM ([2]; pH 7.4, 0.1 μM)?
A: The recovery at 6 h, 0.1 μM was less than 96%.

Q: What about the recovery at 6 h, 1 μM ([2]; pH 7.4, 1 μM) of the same compound?
A: The recovery at 6 h, 1 μM was less than 88.8%.

Q: And the recovery at 6 h, 10 μM ([2]; pH 7.4, 10 μM)?
A: Its recovery at 6 h, 10 μM is less than 95%.

Q: And the Bound (mouse plasma proteins; 0.1 μM)?
A: Its Bound is greater than 97.4%.

Q: What about the Unbound (mouse plasma proteins; 0.1 μM) of the same compound?
A: The Unbound was less than 2.63%.

Q: What about the Remaining (mouse plasma proteins; 0.1 μM) of the same compound?
A: The Remaining was 98.5 ± 14.5%.

Q: And the Bound (mouse plasma proteins; 1 μM)?
A: The Bound was greater than 99.7%.

Q: And the Unbound (mouse plasma proteins; 1 μM)?
A: Its Unbound is less than 0.266%.

Q: And the Remaining (mouse plasma proteins; 1 μM)?
A: Its Remaining is 92.2 ± 5.7%.

Q: What about the Bound (mouse plasma proteins; 10 μM) of the same compound?
A: The Bound was greater than 99.97%.

Q: And the Unbound (mouse plasma proteins; 10 μM)?
A: The Unbound was less than 0.0272%.

Q: What about the Remaining (mouse plasma proteins; 10 μM) of the same compound?
A: Its Remaining is 97.4 ± 10.7%.

Q: What about the IC50 (CYP2D6) of the same compound?
A: Its IC50 is 12.5 µM.

Q: And the half-life at 1 μM ([3]; read-out: Estimated In Vitro t1/2)?
A: Its half-life at 1 μM is 28.4 ± 0.9 min.

Q: And the hepatocyte CLint at 1 μM ([3]; read-out: In Vitro Clint)?
A: The hepatocyte CLint at 1 μM was 48.7 ± 1.5 µL/min/1e6 cells.

Q: What about the CLint scaled at 1 μM ([3]; read-out: Scaled-Up Clint) of the same compound?
A: Its CLint scaled at 1 μM is 13.7 ± 0.42 L/h/kg.

Q: What about the “Remaining at 120 min” value (rat hepatocytes) of the same compound?
A: The value was 5.19 ± 0.32%.

Q: And the half-life at 2 µM (CYP1A2; human)?
A: The half-life at 2 µM was 16.2 ± 2.2 min.

Q: What about the Clint (CYP1A2; recombinant CYP1A2, 2 µM ZB716) of the same compound?
A: Its Clint is 0.866 ± 0.120 µL/min/pmol CYP.

Q: And the IC50 (CYP3A4; CYP3A4-M, marker substrate Midazolam)?
A: The IC50 was “not observed; also recorded: No Inhibition”.

Q: And the IC50 (CYP3A4; CYP3A4-T, marker substrate Testosterone, read-out: IC50)?
A: The IC50 was 11.2 µM.
